Measured values published in ChEMBL document CHEMBL1201862, “PubChem BioAssay data set” (2004).
Calls of active or inactive are those of the source.

What was measured:
[1] = target: Oxytocin receptor (Homo sapiens, UniProt P30559); assay: Counterscreen for vasopressin 1 receptor (V1R) agonists: Fluorescence-based cell-based high throughput dose response assay for agonists of the Oxytocin Receptor (OXTR). [Related pubchem assays: 2435 (Primary screen (OXTR agonists in singlicate)), 434964 (Confirmation screen (V1R agonists in triplicate)), 434969 (Counterscreen (OXTR agonists in …; assay type: functional
Sequence of Oxytocin receptor (P30559 whole entry): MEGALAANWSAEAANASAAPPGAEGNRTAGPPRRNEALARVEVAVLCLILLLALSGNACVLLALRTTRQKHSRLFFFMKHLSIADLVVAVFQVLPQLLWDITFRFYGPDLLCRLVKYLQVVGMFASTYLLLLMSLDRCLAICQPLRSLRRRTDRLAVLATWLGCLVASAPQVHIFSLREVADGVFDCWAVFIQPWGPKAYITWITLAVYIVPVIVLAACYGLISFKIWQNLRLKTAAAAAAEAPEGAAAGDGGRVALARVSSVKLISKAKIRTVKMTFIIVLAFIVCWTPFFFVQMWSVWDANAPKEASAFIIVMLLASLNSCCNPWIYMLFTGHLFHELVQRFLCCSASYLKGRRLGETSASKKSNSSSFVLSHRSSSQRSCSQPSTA

[2] = target: Vasopressin V1a receptor (Homo sapiens, UniProt P37288); assay: Fluorescence-based cell-based high throughput dose response screening assay for agonists of the vasopressin 1 receptor (V1R).; assay type: functional
Sequence of Vasopressin V1a receptor (P37288 whole entry): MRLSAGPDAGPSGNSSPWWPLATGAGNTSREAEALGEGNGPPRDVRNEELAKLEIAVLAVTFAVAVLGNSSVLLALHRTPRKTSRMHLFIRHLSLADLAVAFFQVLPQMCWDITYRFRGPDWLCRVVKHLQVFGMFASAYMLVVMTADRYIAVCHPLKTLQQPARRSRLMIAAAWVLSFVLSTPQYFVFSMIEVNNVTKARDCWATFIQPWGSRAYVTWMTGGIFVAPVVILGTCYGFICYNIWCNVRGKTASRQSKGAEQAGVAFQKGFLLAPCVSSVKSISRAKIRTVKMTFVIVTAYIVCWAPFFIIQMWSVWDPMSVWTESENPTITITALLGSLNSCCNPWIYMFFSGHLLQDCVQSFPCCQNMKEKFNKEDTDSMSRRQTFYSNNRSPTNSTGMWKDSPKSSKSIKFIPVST

[3] = target: Troponin, cardiac muscle (Homo sapiens, UniProt P19429+P45379+P63316); assay: Fluorescence-based biochemical high throughput dose response assay for activators of the calcium sensitivity of cardiac Regulated Thin Filaments (RTF). [Related pubchem assays (depositor defined):AID493008, AID493018, AID504382, AID504383]; assay type: protein-complex assay
[4] = target: T1, Mannose-6-phosphate isomerase (Homo sapiens, UniProt P34949); assay: MPI enzyme activity inhibition – biochemical, fluorescence intensity, coupled assay, primary screen (AID 1209)
T1 sequence (P34949 whole entry): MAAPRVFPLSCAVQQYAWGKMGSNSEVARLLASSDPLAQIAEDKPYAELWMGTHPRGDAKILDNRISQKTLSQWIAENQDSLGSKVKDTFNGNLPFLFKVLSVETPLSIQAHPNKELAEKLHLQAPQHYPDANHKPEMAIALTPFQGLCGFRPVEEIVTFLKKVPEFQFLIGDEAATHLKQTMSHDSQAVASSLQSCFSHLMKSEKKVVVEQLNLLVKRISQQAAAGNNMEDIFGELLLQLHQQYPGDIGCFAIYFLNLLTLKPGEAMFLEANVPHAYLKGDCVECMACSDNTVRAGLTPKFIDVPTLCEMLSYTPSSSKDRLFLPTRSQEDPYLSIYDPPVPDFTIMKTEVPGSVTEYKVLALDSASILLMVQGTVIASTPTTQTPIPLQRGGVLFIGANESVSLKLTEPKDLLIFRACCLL

[5] = target: T2, Heat shock factor protein 1 (Mus musculus, UniProt P38532); assay: decrease of HSF1-responsive luciferase luminescence – cell-based, NIH3T3, dose retest, confirmation (AID 2382); assay type: functional;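 also: NIH3T3 fibroblasts with HSF1-driven luciferase reporter stressed by proteasome inhibitor MG132; luminescence from HSF1-driven luciferase expression after 8 hours of MG132 stress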
T2 sequence (P38532 whole entry): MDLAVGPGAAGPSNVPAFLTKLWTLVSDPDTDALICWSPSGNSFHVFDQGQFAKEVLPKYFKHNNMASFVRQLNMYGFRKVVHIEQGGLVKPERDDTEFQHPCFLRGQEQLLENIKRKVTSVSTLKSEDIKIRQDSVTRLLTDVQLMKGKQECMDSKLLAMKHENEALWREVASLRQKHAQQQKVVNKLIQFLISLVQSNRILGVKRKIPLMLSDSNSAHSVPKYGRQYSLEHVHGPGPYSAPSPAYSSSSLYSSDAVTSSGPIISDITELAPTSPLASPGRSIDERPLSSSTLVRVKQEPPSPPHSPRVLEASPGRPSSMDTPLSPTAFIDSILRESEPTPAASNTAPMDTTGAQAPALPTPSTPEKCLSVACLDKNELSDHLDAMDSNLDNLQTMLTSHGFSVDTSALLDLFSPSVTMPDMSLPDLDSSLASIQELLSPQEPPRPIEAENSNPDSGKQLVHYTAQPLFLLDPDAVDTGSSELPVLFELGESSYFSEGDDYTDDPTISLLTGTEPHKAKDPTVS

[6] = test system: HeLa; assay: Cytotoxicity counterscreen assay for transcriptional activators of heat shock protein 70 (Hsp70). [Related pubchem assays: 1203, 1252 ]; assay type: functional; settings: Homo sapiens;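 also: cells exposed to compound for 16 hours before readout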
[7] = target: DNA dC->dU-editing enzyme APOBEC-3A (Homo sapiens, UniProt P31941); assay: Dose Response confirmation of small molecule APOBEC3A DNA Deaminase Inhibitors via a fluorescence-based single-stranded DNA deaminase assay. [Related pubchem assays (depositor defined):AID493011, AID493024]; assay type: functional
Sequence of DNA dC->dU-editing enzyme APOBEC-3A (P31941 whole entry): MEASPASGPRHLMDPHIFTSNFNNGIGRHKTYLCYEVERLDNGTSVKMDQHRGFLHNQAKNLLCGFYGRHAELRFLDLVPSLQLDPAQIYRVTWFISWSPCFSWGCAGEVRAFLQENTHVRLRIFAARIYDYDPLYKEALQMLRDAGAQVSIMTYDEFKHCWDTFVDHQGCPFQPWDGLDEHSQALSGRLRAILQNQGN

[8] = target: DNA dC->dU-editing enzyme APOBEC-3G (Homo sapiens, UniProt Q9HC16); assay type: functional;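 also: Dose-response counterscreen measuring inhibition of APOBEC3G DNA deaminase activity, run while confirming APOBEC3A inhibitors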
Sequence of DNA dC->dU-editing enzyme APOBEC-3G (Q9HC16 whole entry): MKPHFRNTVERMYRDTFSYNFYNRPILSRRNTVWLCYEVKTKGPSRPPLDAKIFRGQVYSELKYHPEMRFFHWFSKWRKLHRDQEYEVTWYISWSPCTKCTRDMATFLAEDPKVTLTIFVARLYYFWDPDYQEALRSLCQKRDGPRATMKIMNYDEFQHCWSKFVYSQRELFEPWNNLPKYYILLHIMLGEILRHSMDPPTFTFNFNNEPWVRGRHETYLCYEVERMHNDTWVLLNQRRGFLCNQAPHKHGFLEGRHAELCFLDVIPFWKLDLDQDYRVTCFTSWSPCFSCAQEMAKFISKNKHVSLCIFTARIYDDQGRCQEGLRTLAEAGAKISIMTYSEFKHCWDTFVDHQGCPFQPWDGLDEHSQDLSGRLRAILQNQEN

[9] = target: Bcl-2-like protein 10 (Homo sapiens, UniProt Q9HD36); assay: Concentration-response of Bcl-B inhibitors by biochemical FP with TR3 (AID 1243); assay type: functional
Sequence of Bcl-2-like protein 10 (Q9HD36 whole entry): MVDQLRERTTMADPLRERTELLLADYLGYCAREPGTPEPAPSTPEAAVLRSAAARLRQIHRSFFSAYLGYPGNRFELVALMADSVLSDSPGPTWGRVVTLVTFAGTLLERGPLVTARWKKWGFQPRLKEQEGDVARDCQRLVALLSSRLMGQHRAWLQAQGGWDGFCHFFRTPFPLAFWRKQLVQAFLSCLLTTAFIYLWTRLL

[10] = viability loss of HPDE-C7K cells – cell-based, fluorescence, HTS, primary screen (AID 431); assay type: functional; settings: Homo sapiens
[11] = fluconazole-exposed Candida albicans growth modulators – fluorescence, retest, confirmation (AID 2467); assay type: functional, cell-based
[12] = NIH-3T3 fibroblast cytotoxicity, dose response, cytotoxicity control, cell-based, fluorescence, Alamar Blue, secondary assay (AID 2327); assay type: functional;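 also: NIH-3T3 mouse fibroblasts cultured with fluconazole at 8 µg/mL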
[13] = Vero E6 cell cytotoxicity, dose response, cytotoxicity control for non-replicating M. tuberculosis project, secondary assay (AID 492998); assay type: functional, VeroE6; settings: Vero C1008
[14] = THP-1 cell cytotoxicity, dose response, cytotoxicity control for non-replicating M. tuberculosis project (AID 489025); assay type: functional
[15] = target: Sphingosine 1-phosphate receptor 1 (Homo sapiens, UniProt P21453); assay type: functional;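 also: Tango beta-arrestin reporter U2OS cells stimulated with S1P near its EC80; inhibitor potency meaning antagonism of receptor activation by the natural agonist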
Sequence of Sphingosine 1-phosphate receptor 1 (P21453 whole entry): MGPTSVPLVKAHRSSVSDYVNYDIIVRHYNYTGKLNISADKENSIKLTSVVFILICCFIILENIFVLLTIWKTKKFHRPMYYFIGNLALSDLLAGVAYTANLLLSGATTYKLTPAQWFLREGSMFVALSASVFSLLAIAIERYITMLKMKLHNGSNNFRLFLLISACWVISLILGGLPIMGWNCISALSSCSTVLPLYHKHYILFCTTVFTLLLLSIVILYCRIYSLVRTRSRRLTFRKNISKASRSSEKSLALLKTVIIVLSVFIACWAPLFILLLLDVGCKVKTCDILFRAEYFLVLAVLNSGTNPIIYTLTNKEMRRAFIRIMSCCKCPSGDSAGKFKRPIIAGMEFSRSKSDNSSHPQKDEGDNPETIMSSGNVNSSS

[16] = viability of HCT116 lacking mutant beta-catenin – cell-based, human colon tumor, dose response (AID 1045); assay type: functional;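 also: HCT116 colon tumor cells with beta catenin knocked out; cells exposed to compound for 60 hours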
[17] = target: T3, Sphingosine 1-phosphate receptor 4 (Homo sapiens, UniProt O95977); assay: Late stage fluorescence dose response cell-based screening assay for antagonists of the Sphingosine 1-Phosphate Receptor 4 (S1P4). [Related pubchem assays: 1524 (Confirmation screen (S1P4 antagonists).), 1510 (Primary screen (S1P4 antagonists).), 1853 (Summary AID (S1P4 antagonists).), 1692 (Dose response screen (S1P4 antagonists).)]; assay type: functional
T3 sequence (O95977 whole entry): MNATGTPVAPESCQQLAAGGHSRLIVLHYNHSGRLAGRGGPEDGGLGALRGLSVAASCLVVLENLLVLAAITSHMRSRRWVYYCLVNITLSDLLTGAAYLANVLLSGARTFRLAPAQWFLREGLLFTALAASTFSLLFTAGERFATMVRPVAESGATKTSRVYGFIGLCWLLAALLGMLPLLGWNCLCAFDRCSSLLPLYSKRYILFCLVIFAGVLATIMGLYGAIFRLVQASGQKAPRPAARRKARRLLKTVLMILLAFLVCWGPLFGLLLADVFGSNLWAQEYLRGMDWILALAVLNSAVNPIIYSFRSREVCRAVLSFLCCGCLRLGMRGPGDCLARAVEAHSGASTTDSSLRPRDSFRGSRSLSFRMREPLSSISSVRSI

[18] = cells; assay type: functional
[19] = target: T3, Sphingosine 1-phosphate receptor 4; assay: Fluorescence dose response cell-based high throughput screening assay for antagonists of the Sphingosine 1-Phosphate Receptor 4 (S1P4). [Related pubchem assays: 1524 (Confirmation in triplicates.), 1510 (Primary screen.)]; assay type: functional
[20] = viability of PTEN-deleted HCT116 cells – cell-based, HCT116 PTEN knockout, dose response (AID 1047); assay type: functional;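 also: HCT116 colon tumor cells with PTEN knocked out; cells exposed to compound for 60 hours before readout; potency for loss of cell viability measured by luminescence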
[21] = HPDE-C7 pancreatic duct cell viability loss – fluorescence, HTS (AID 430); assay type: functional, cell-based; settings: Homo sapiens
[22] = target: Epstein-Barr nuclear antigen 1 (Epstein-Barr virus (strain B95-8) (HHV-4) (Human herpesvirus 4), UniProt P03211); assay: inhibition of EBV nuclear antigen 1 DNA binding – biochemical, fluorescence polarization, 1536-well, dose response (AID 2381); set-up: species or system human gammaherpesvirus 4;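 also: fluorescence polarization of a Cy5 DNA probe bound by EBNA-1 protein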
Sequence of Epstein-Barr nuclear antigen 1 (P03211 whole entry): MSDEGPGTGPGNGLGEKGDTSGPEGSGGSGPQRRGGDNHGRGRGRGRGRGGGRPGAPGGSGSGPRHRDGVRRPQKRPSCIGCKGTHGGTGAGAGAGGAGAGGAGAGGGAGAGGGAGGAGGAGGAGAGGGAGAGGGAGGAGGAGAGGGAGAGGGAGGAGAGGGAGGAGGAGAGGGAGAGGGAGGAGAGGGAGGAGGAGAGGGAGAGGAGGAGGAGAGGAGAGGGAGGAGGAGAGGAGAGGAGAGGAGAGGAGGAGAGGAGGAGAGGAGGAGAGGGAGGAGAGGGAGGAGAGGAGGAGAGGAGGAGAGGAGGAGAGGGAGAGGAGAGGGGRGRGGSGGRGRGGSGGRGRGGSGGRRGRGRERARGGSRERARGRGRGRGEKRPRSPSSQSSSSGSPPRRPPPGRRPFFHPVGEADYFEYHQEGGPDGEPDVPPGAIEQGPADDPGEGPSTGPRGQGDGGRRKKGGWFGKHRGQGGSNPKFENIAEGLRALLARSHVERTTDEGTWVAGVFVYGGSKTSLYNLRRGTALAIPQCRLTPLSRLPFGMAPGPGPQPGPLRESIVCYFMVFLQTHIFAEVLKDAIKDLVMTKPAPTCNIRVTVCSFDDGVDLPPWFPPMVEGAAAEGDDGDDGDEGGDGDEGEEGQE

[23] = target: Lytic switch protein BZLF1 (Epstein-Barr virus (strain B95-8) (HHV-4) (Human herpesvirus 4), UniProt P03206); assay: inhibition of BZLF1 ZTA DNA binding – biochemical, fluorescence polarization, Epstein-Barr virus, 1536-well, counter-screen for EBNA-1 inhibitor project, dose response (AID 2377); set-up: species or system human gammaherpesvirus 4;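 also: fluorescence polarization of Cy5-labelled ZRE DNA probe bound by purified Zta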
Sequence of Lytic switch protein BZLF1 (P03206 whole entry): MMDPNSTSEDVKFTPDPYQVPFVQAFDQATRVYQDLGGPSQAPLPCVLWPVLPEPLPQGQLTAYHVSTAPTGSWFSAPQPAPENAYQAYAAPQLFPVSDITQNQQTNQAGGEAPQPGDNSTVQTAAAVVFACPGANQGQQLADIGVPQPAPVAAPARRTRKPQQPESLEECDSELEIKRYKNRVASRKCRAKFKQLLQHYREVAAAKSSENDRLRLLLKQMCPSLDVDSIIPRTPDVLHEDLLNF

[24] = target: Protein-tyrosine kinase 2-beta (Homo sapiens, UniProt Q14289);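 also: potency of inhibitors of PYK2 kinase phosphorylation of poly-GT substrate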
Sequence of Protein-tyrosine kinase 2-beta (Q14289 whole entry, the tested form may be a part): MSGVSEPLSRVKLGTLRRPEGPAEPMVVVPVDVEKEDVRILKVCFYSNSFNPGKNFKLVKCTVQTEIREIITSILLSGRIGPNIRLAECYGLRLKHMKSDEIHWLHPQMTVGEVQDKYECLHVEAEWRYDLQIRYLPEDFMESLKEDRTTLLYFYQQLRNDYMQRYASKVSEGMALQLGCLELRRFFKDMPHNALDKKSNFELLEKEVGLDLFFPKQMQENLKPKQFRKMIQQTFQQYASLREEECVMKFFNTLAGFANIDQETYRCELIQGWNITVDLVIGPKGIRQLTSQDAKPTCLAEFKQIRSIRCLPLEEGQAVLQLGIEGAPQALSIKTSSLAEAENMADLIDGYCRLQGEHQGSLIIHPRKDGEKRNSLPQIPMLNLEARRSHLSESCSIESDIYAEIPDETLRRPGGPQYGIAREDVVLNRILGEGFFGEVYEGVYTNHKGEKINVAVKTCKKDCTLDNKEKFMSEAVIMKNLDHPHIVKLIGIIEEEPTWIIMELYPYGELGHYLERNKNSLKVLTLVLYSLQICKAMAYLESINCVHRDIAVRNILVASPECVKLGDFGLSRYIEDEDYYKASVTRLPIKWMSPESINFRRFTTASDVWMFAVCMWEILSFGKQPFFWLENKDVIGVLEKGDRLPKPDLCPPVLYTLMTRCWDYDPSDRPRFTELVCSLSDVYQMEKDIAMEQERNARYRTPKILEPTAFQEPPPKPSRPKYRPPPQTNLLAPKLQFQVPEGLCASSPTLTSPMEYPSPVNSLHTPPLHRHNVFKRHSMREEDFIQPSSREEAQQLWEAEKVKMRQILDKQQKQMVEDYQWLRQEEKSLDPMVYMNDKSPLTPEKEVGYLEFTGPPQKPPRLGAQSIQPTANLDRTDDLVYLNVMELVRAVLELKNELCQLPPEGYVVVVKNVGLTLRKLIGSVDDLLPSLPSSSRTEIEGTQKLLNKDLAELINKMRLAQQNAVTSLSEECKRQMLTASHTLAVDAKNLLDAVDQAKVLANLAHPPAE

[25] = target: T4, Estrogen receptor (Homo sapiens, UniProt P03372); assay: ERα coactivator recruitment enhancers – biochemical, TR-FRET, ERα LBD, dose response (AID 737)
T4 sequence (P03372 whole entry): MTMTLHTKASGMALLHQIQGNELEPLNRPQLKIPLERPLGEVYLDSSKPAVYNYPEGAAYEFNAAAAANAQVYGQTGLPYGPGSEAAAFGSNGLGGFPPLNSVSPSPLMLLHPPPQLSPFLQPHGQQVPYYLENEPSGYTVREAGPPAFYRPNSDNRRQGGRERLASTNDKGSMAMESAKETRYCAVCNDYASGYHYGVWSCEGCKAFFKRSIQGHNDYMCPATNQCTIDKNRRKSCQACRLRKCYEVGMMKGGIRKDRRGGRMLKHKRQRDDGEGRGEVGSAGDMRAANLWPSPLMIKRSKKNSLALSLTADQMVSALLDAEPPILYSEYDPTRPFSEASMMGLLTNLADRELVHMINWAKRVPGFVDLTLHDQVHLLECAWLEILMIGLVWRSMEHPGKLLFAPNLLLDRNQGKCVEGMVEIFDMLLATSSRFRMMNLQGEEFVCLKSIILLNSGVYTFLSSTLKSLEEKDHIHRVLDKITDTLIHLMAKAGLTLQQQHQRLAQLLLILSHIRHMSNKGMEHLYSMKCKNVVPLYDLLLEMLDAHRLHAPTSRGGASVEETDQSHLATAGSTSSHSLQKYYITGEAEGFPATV

[26] = target: T5, fMet-Leu-Phe receptor (Homo sapiens, UniProt P21462); assay: formyl peptide receptor binders – dose response (AID 519); assay type: functional
T5 sequence (P21462 whole entry): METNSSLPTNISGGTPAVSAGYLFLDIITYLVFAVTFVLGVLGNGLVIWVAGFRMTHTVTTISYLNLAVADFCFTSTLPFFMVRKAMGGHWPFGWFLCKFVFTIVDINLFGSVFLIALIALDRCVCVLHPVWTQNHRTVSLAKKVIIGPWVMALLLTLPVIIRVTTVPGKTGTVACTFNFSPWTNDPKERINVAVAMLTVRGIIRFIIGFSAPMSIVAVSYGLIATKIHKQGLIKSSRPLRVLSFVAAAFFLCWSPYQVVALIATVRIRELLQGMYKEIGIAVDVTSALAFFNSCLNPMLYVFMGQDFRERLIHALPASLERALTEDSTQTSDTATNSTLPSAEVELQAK

[27] = test system: Streptococcus; assay: GAS UMAA2166 growth inhibition – luminescence, BacTiterGlo, counter-screen for streptokinase expression inhibitor project, dose response (AID 1915); assay type: functional, organism-based;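 also: potency for reduction of bacterial viability or growth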
[28] = target: T6, Streptokinase A (Streptococcus pyogenes serotype M1, UniProt P10520); assay: viability-normalized secreted streptokinase activity reduction – plasminogen activation absorbance, OD405, dose response (AID 1914); assay type: functional, Streptococcus pyogenes M1 GAS;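 also: secreted streptokinase activity via plasminogen activation per viability signal from cell pellet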
T6 sequence (P10520 whole entry): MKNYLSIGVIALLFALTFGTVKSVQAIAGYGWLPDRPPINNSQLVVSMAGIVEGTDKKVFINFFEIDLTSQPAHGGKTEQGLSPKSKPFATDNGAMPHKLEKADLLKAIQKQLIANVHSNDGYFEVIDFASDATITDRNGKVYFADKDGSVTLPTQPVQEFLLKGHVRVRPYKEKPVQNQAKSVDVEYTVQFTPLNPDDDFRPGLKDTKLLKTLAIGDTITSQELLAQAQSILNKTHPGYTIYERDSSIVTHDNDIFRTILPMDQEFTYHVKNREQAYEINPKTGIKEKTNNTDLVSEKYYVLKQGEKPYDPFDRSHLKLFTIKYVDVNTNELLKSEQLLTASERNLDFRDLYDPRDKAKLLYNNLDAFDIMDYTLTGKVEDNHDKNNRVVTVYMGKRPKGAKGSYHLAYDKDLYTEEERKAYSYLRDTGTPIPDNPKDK

[29] = test system: Streptococcus sp. 'group A'; assay: Streptococcus pyogenes SK(-)GAS viability under kanamycin – luminescence, BacTiterGlo, confirmation, counter-screen for streptokinase expression inhibitor project, dose response (AID 1900); assay type: functional, organism-based
[30] = antiviral protection against BTV-induced cell death – arbovirus, BSR cells, confirmation (AID 1250); assay type: functional;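 also: protection from viral cytopathic effect measured as cell viability by ATP luminescence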

Compound: CCSC1=N/C(=C\C=C2/Oc3ccccc3N2CC)C(=O)S1
- EC50 [1]: > 29.9 µM (not active)
- EC50 [2]: > 29.9 µM (not active)
- EC50 [3]: 4.53 µM (active)

Compound: Cc1nn(-c2ccccc2)c(S)c1/C=N/c1cccc([N+](=O)[O-])c1
- IC50 [4]: 19.1 µM (active)
- EC50 [5]: > 195 µM (not active)

Compound: COc1ccc(N=Nc2[nH]c3ccc(C)cc3c2O)cc1
- CC50 [6]: > 33 µM (not active)
- IC50 [7]: 8.35 µM (active)
- IC50 [8]: 7.98 µM (active)

Compound: O=C(O)Cc1c[nH]c2ccc(O)cc12
- EC50 [9]: 7.88 µM (active)

Compound: CCCS(=O)(=O)c1nnnn1-c1cccc(OC)c1
- EC50 [10]: 6.25 µM (active)
- EC50 [11]: 2.49 µM (active)
- EC50 [12]: 5.1 µM (inconclusive)
- CC50 [13]: 11.7 µM (active)
- CC50 [14]: 17.8 µM (active)
- IC50 [15]: 20.1 µM (not active)
- EC50 [16]: 6.66 µM (active)
- IC50 [17]: 4.51 µM (not active)
- IC50 [18]: 5.35 µM (active)
- IC50 [19]: 951 nM (active)
- EC50 [20]: 7.57 µM (active)
- EC50 [21]: 6.57 µM (active)

Compound: CN1CCN(c2ccc(-c3cccc(NC(=O)COc4ccc(Cl)cc4Cl)c3)nn2)CC1
- IC50 [22]: > 148 µM (not active)
- IC50 [23]: > 111 µM (not active)

Compound: O=c1cc(-c2ccco2)oc2c1ccc1ccccc12
- IC50 [24]: > 69.5 µM (not active)
- EC50 [25]: 12.4 µM (active)

Compound: CCOC(=O)c1sc(=S)n2c1[nH]c(=O)c1ccc(C(=O)OC)cc12
- Ki [26]: > 66.7 µM (inactive)
- EC50 [27]: 11.5 µM (active)
- EC50 [28]: > 150 µM (not active)
- EC50 [29]: 6.34 µM (active)
- IC50 [30]: 53 µM (active)
